Test results taken from patent US7879838B2, “Heteroaryl substituted pyrazinyl-piperazine-piperidines with CXCR3 antagonist activity” (Schering Corporation, priority 2005, dated 2011).

The compounds below were run against T1, Human CXCR3 (N-delta 4) (Homo sapiens, UniProt P49682) (assay: Human CXCR3 (N-delta 4) scintillation proximity assay (SPA), [125I] IP-10 binding to Ba/F3-hCXCR3 membranes). Details: IC50 rating; 25 pM [125I] IP-10, membranes of Ba/F3 cells expressing human CXCR3 (N-delta 4).
T1 construct: CD8 leader (N); Flag tag; expressed in transfected cells; membranes prepared
T1 sequence (P49682 5-368 limits assumed): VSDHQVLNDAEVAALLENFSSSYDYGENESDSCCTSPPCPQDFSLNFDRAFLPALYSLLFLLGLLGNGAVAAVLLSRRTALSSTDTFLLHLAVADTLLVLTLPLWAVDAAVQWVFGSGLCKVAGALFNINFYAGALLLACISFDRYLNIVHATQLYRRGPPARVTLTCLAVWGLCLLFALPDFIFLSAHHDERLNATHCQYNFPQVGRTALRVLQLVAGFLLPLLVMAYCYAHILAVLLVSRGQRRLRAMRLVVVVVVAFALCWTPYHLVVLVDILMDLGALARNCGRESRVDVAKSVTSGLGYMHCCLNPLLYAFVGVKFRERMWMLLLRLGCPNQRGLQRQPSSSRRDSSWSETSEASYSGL
Text: The inventive compounds can readily be evaluated to determine activity at The CXCR3 receptors by known methods, such as, for example, Development of Human CXCR3 (N-delta 4) Binding Assay.
Cloning and Expression of Human CXCR3 (N-delta 4):
The DNA encoding human CXCR3 was cloned by PCR using human genomic DNA (Promega, Madison, Wis.) as a template. The PCR primers were designed based on the published sequence of human orphan receptor GPR9 (1) with incorporated restriction sites, a Kozak consensus sequence, CD8 leader and Flag tag. The PCR product was subcloned into the mammalian expression vector pME18Sneo, a derivative of the SR-alpha expression vector (designated as pME18Sneo-hCXCR3 (N-delta 4).
IL-3-dependent mouse pro-B cells Ba/F3 were transfected by electroporation in 0.4 ml Dulbecco's PBS containing 4×10^6 cells with 20 μg of pME18Sneo-hCXCR3 (N-delta 4) plasmid DNA. Cells were pulsed at 400 Volts, 100 OHMs, 960 μFd. The transfected cells were under selection with 1 mg/ml G418 (Life Technologies, Gaithersburg, Md.). G418-resistant Ba/F3 clones were screened for CXCR3 expression by specific binding of [^125I] IP-10 (NEN Life Science Products, Boston, Mass.).
Preparation of Ba/F3-hCXCR3 (N-delta 4) Membranes
Ba/F3 cells expressing human CXCR3 (N-delta 4) were pelleted and resuspended in the lysis buffer containing 10 mM HEPES, pH 7.5 and Complete® protease inhibitors (1 tablet per 100 ml) (Boehringer Mannheim, Indianapolis, Ind.) at a cell density of 20×10^6 cells per ml. After 5 minutes incubation on ice, cells were transferred to 4639 cell disruption bomb (Parr Instrument, Moline, Ill.) and applied with 1,500 psi of nitrogen for 30 minutes on ice. Large cellular debris was removed by centrifugation at 1,000×g. Cell membrane in the supernatant was sedimented at 100,000×g. The membrane was resuspended in the lysis buffer supplemented with 10% sucrose and stored at −80° C. Total protein concentration of the membrane was determined by BCA method from Pierce (Rockford, Ill.).
Human CXCR3 (N-delta 4) Scintillation Proximity Assay (SPA)
For each assay point, 2 μg of membrane was preincubated for 1 hr with 300 μg wheat germ agglutinin (WGA) coated SPA beads (Amersham, Arlington Heights, Ill.) in the binding buffer (50 mM HEPES, 1 mM CaCl2, 5 mM MgCl2, 125 mM NaCl, 0.002% NaN3, 1.0% BSA) at room temperature. The beads were spun down, washed once, resuspended in the binding buffer and transferred to a 96-well Isoplate (Wallac, Gaithersburg, Md.). 25 pM of [^125I] IP-10 with tested compounds in a series of titration were added to start the reaction. After 3 hr reaction at room temperature, the amount of [^125I] IP-10 bound to the SPA beads was determined with a Wallac 1450 Microbeta counter.
The Ki values for the various example compounds of the present invention are given in the afore-mentioned Table 1. From these values, it would be apparent to the skilled artisan that the compounds of the invention have excellent utility CXCR3 antagonists.

Row | Structure (SMILES) | IC50
1 | CC[C@H]1CN(c2nc(N)c(C(N)=O)nc2Cl)CCN1C1CCN(Cc2ccc(Cl)nc2)CC1 [compound 49] | 25 to 100 nM
2 | CC[C@H]1CN(c2nc(N)c(C(=O)NCCNS(C)(=O)=O)nc2Cl)CCN1C1CCN(C(=O)c2ccc(Cl)nc2N)CC1 [compound 50] | 25 to 100 nM
3 | CC[C@H]1CN(c2nc(N)c(C(=O)NC3CCOC3)nc2Cl)CCN1C1CCN(C(=O)c2ccc(Cl)nc2N)CC1 (stereo partly drawn) [compound 51] | 25 to 100 nM
4 | CC[C@H]1CN(c2nc(N)c(C(=O)NCCN3CCCC3)nc2Cl)CCN1C1CCN(C(=O)c2ccc(Cl)nc2N)CC1 [compound 52] | 25 to 100 nM
5 | CC[C@H]1CN(c2nc(N)c(C(=O)NCCS(C)(=O)=O)nc2Cl)CCN1C1CCN(Cc2ccc(Cl)nc2N)CC1 [compound 53] | 25 to 100 nM
6 | CC[C@H]1CN(c2nc(N)c(C(=O)NC3CCS(=O)(=O)C3)nc2Cl)CCN1C1CCN(C(=O)c2ccc(Cl)nc2N)CC1 (stereo partly drawn) [compound 54] | 25 to 100 nM
7 | CC[C@H]1CN(c2nc(N)c(C(=O)NC3CCOC3=O)nc2Cl)CCN1C1CCN(C(=O)c2ccc(Cl)nc2N)CC1 (stereo partly drawn) [compound 55] | 25 to 100 nM
8 | CC[C@H]1CN(c2nc(N)c(C(N)=O)nc2Cl)CCN1C1CCN(C(=O)c2cc(F)c(Cl)nc2Cl)CC1 [compound 56] | 25 to 100 nM
9 | CC[C@H]1CN(c2nc(N)c(C(=O)NCc3ccco3)nc2Cl)CCN1C1CCN(C(=O)c2ccc(Cl)nc2N)CC1 [compound 57] | 25 to 100 nM
10 | CC[C@H]1CN(c2nc(NCc3ccc(F)c(F)c3)c(C(=O)OC)nc2Cl)CCN1C1CCN(C(=O)c2ccc(Cl)nc2N)CC1 [compound 60] | 25 to 100 nM
11 | CC[C@H]1CN(c2nc(N)c(C(=O)NC3COCC3O)nc2Cl)CCN1C1CCN(C(=O)c2ccc(Cl)nc2N)CC1 (stereo partly drawn) [compound 61] | 25 to 100 nM
12 | CC[C@H]1CN(c2nc(N)c(C(=O)NCc3cccs3)nc2Cl)CCN1C1CCN(C(=O)c2ccc(Cl)nc2N)CC1 [compound 62] | 25 to 100 nM
13 | CC[C@H]1CN(c2nc(N)c(C(=O)NCCO)nc2Cl)CCN1C1CCN(C(=O)c2ccc(C(F)(F)F)nc2N)CC1 [compound 63] | 25 to 100 nM
14 | CC[C@H]1CN(c2nc(N)c(C(=O)NCCN(C)C)nc2Cl)CCN1C1CCN(C(=O)c2ccc(Cl)nc2N)CC1 [compound 64] | 25 to 100 nM
15 | CC[C@H]1CN(c2nc(N)c(C(=O)NN)nc2Cl)CCN1C1CCN(C(=O)c2ccc(Cl)nc2N)CC1 [compound 65] | 25 to 100 nM
16 | CC[C@H]1CN(c2nc(N)c(C(=O)NCCO)nc2Cl)CCN1C1CCN(Cc2ccc(Cl)nc2N2CCOCC2)CC1 [compound 66] | 25 to 100 nM
17 | CC[C@H]1CN(c2nc(N)c(C(=O)NCCS(C)(=O)=O)nc2Cl)CCN1C1CCN(C(=O)c2ccc(Cl)nc2N)CC1 [compound 67] | 25 to 100 nM
18 | CC[C@H]1CN(c2nc(N)c(C(=O)NCCO)nc2Cl)CCN1C1CCN(C(=O)c2ccc(C(F)(F)F)nc2Cl)CC1 [compound 68] | 25 to 100 nM
19 | CC[C@H]1CN(c2nc(N)c(C(=O)NN)nc2Cl)CCN1C1CCN(C(=O)c2ccc(-n3cccc3)nc2)CC1 [compound 69] | 25 to 100 nM
20 | CC[C@H]1CN(c2nc(N)c(C(=O)NCCO)nc2Cl)CCN1C1CCN(Cc2ccc(C(F)(F)F)nc2)CC1 [compound 70] | 25 to 100 nM
21 | CC[C@H]1CN(c2nc(N)c(C(=O)NN)nc2Cl)CCN1C1CCN(C(=O)c2cnc(Cl)c(Cl)c2)CC1 [compound 71] | 25 to 100 nM
22 | CC[C@H]1CN(c2nc(N)c(C(=O)NCCO)nc2Cl)CCN1C1CCN(Cc2ccc(C#N)nc2)CC1 [compound 72] | > 100 nM
23 | CC[C@H]1CN(c2nc(N)c(C(=O)NN)nc2Cl)CCN1C1CCN(C(=O)c2cc(F)c(N)nc2Cl)CC1 [compound 73] | > 100 nM
24 | CC[C@H]1CN(c2nc(N)c(C(=O)NC3CC3)nc2Cl)CCN1C1CCN(Cc2cc(C)nn2C)CC1 [compound 74] | > 100 nM

Row | Structure (SMILES) | IC50
25 | CC[C@H]1CN(c2nc(N)c(C(N)=O)nc2Cl)CCN1C1CCN(Cc2ccc(Cl)n3ccnc23)CC1 [compound 75] | > 100 nM
26 | CCOC(=O)C1(NC(=O)c2nc(Cl)c(N3CCN(C4CCN(C(=O)c5ccc(Cl)nc5N)CC4)[C@@H](CC)C3)nc2N)CC1 [compound 76] | > 100 nM
27 | CC[C@H]1CN(c2nc(NC(=O)N(C)C)c(C(=O)NC)nc2Cl)CCN1C1CCN(C(=O)c2ccc(Cl)nc2N)CC1 [compound 77] | > 100 nM
28 | CC[C@H]1CN(c2nc(N)c(C(=O)NC3CC3)nc2Cl)CCN1C1CCN(C(=O)c2cc(F)c(N)nc2Cl)CC1 [compound 78] | > 100 nM
29 | CC[C@H]1CN(c2nc(N)c(C(=O)NCCO)nc2Cl)CCN1C1CCN(C(=O)c2cnc(Cl)nc2C(F)(F)F)CC1 [compound 79] | > 100 nM
30 | CCOC(=O)NCc1nc(Cl)c(N2CCN(C3CCN(C(=O)c4ccc(Cl)nc4N)CC3)[C@@H](CC)C2)nc1N [compound 80] | > 100 nM
31 | CC[C@H]1CN(c2nc(N)c(C(=O)NC3CC3)nc2Cl)CCN1C1CCN(Cc2c(C)nn(C)c2C)CC1 [compound 81] | > 100 nM
32 | CC[C@H]1CN(c2nc(N)c(C(=O)NCC(C)(C)O)nc2Cl)CCN1C1CCN(C(=O)c2ccc(Cl)nc2N)CC1 [compound 82] | > 100 nM
33 | CC[C@H]1CN(c2nc(N)c(C(=O)Nc3nccc(=O)[nH]3)nc2Cl)CCN1C1CCN(C(=O)c2ccc(Cl)nc2N)CC1 [compound 83] | > 100 nM
34 | CC[C@H]1CN(c2nc(NCC3CC3)c(C(N)=O)nc2Cl)CCN1C1CCN(C(=O)c2ccc(Cl)nc2N)CC1 [compound 84] | > 100 nM
35 | CC[C@H]1CN(c2nc(N)c(C(=O)NCCO)nc2Cl)CCN1C1CCN(Cc2ccc(Cl)nn2)CC1 [compound 85] | > 100 nM
36 | CC[C@H]1CN(c2nc(N)c(C(=O)NNC(=O)C3CC3)nc2Cl)CCN1C1CCN(C(=O)c2ccc(Cl)nc2N)CC1 [compound 86] | > 100 nM
37 | CC[C@H]1CN(c2nc(N)c(C(=O)N3CC(O)C3)nc2Cl)CCN1C1CCN(C(=O)c2ccc(Cl)nc2N)CC1 [compound 87] | > 100 nM
38 | CC[C@H]1CN(c2nc(N)c(C(N)=O)nc2Cl)CCN1C1CCN(C(=O)c2ccc(-n3cccc3)nc2)CC1 [compound 88] | > 100 nM
39 | CC[C@H]1CN(c2nc(N)c(C(=O)Nc3ncccc3O)nc2Cl)CCN1C1CCN(C(=O)c2ccc(Cl)nc2N)CC1 [compound 89] | > 100 nM
40 | CC[C@H]1CN(c2nc(N)c(C(=O)N/C(N)=N/C#N)nc2Cl)CCN1C1CCN(C(=O)c2ccc(Cl)nc2N)CC1 [compound 90] | > 100 nM
41 | CC[C@H]1CN(c2nc(N)c(C(=O)NCCO)nc2Cl)CCN1C1CCN(C(=O)c2ccc(Cl)nc2NC)CC1 [compound 91] | > 100 nM
42 | CC[C@H]1CN(c2nc(N)c(C(=O)NCCO)nc2Cl)CCN1C1CCN(Cc2ccc(N3CCOCC3)nc2Cl)CC1 [compound 92] | > 100 nM
43 | CC[C@H]1CN(c2nc(N)c(C(=O)NC3CCC(O)CC3)nc2Cl)CCN1C1CCN(C(=O)c2ccc(Cl)nc2N)CC1 (stereo partly drawn) [compound 93] | > 100 nM
44 | CC[C@H]1CN(c2nc(N)c(C(=O)NCCO)nc2Cl)CCN1C1CCN(Cc2cc3ccccc3nc2Cl)CC1 [compound 94] | > 100 nM
45 | CC[C@H]1CN(c2nc(N)c(C(=O)NC(=N)N3CCCC3)nc2Cl)CCN1C1CCN(C(=O)c2ccc(Cl)nc2N)CC1 [compound 95] | > 100 nM
46 | CC[C@H]1CN(c2nc(N)c(C(N)=O)nc2Cl)CCN1C1CCN(C(=O)c2cc(F)c(N)nc2Cl)CC1 [compound 96] | > 100 nM
47 | CC[C@H]1CN(c2nc(N)c(C(=O)NCCO)nc2Cl)CCN1C1CCN(Cc2ccc(NC3CC3)nc2Cl)CC1 [compound 97] | > 100 nM
48 | CC[C@H]1CN(c2nc(N)c(C(=O)NCCCN(C)C)nc2Cl)CCN1C1CCN(C(=O)c2ccc(Cl)nc2N)CC1 [compound 98] | > 100 nM
